Data published in patent publication US20110212142A1, “CURCUMINOIDS AND ITS METABOLITES FOR THE APPLICATION IN OCULAR DISEASES” (LAILA PHARMACEUTICALS PVT.LTD., priority 2008, published 2011).
Where two headings read alike, the source gives them in different places.

Assay: Particle size distribution study (Malvern particle size analyzer, laser diffraction)
Type: physicochemical
Experimental: The study was conducted using Malvern particle size analyzer. The map of scattering intensity versus angle is the primary source of information used to calculate the particle size. The scattering of particles is accurately predicted by the Mie scattering model allowing accurate sizing across the widest possible dynamic range. During the laser diffraction measurement, particles are passed through a focused laser beam. These particles scatter light at an angle that is inversely proportional to their size. The angular intensity of the scattered light is then measured by a series of photosensitive detectors. The advantage of this study is that there is no sample preparation involved.
This is a clear indication that the process of nanoemulsification followed has effectively transformed the large sized particles to nanosized coated curcuminoid particles. Additional peaks can be observed which is contributed by the high molecular weight excipients used to prepare the formulation.

particle size: 373 nm
particle size (listed as unformulated curcumin): 374 nm
SMILES: COc1cc(/C=C/C(=O)CC(=O)/C=C/c2ccc(O)c(OC)c2)ccc1O [unformulated curcumin 98%, curcumin]
